# In US8377691B2 (priority 2006, dated 2013):
# “Also recorded” adds a separate entry of the source.
# Test system: A/M2 VN1194
# Assay type: biochemical
row,SMILES,H+ transport across VLP membranes (fluorescence)
1,NC12CC3CC(CC(C3)C1)C2 [amantadine],"exerted no effect; also recorded: did not, however, influence"
2,CC(N)C12CC3CC(CC(C3)C1)C2 (centres unmarked) [rimantadine],exerted no effect
